Assay results reported in ChEMBL document CHEMBL1201862, “PubChem BioAssay data set” (2004).
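In this assay, cells in 96-well plates receive the compound at five concentrations for 48 hours. Endpoints are linearly interpolated between the surrounding concentrations. Here, GI50 denotes the concentration required for 50% inhibition of growth.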 Calls of active or inactive are those of the source. No stated cut-off is given here; in the data, active = GI50 up to about 1.1 µM and inactive = higher.

What was measured:
Assay in all cases: DTP human tumour cell line panel, 48 h
HL-60 = test system: HL-60
SK-MEL-28 = test system: SK-MEL-28
TK-10 = test system: TK-10
SNB-19 = test system: SNB-19
SK-MEL-5 = test system: SK-MEL-5
NCI-H23 = test system: NCI-H23
HCC 2998 = test system: HCC 2998
UACC-62 = test system: UACC-62
U-251 = test system: U-251
IGROV-1 = test system: IGROV-1
NCI-H522 = test system: NCI-H522
UO-31 = test system: UO-31
NCI-H460 = test system: NCI-H460
OVCAR-5 = test system: OVCAR-5
A549 = test system: A549
SK-OV-3 = test system: SK-OV-3

SMILES | GI50 (HL-60) | GI50 (SK-MEL-28) | GI50 (TK-10) | GI50 (SNB-19) | GI50 (SK-MEL-5) | GI50 (NCI-H23) | GI50 (HCC 2998) | GI50 (UACC-62) | GI50 (U-251) | GI50 (IGROV-1) | GI50 (NCI-H522) | GI50 (UO-31) | GI50 (NCI-H460) | GI50 (OVCAR-5) | GI50 (A549) | GI50 (SK-OV-3)
CSC(=S)N/N=C/c1nccc2ccccc12 | 0.372 µM (active) | 2.19 µM (inactive) | 7.08 µM (inactive) | 2.29 µM (inactive) | 1.08 µM (active) | 1.42 µM (inactive) | 1.3 µM (inactive) | 1.29 µM (inactive) | 0.875 µM (active) | 1.91 µM (inactive) | 0.34 µM (active) | 1.94 µM (inactive) | 1.09 µM (active) | 2.74 µM (inactive) | 1.65 µM (inactive) | 6.79 µM (inactive)
CC(=O)O[C@]1(C)OC(=O)[C@@H](CC(C)C)N1[N+](=O)[O-] | > 100 µM (inactive) | > 100 µM (inactive) | > 100 µM (inactive) | > 100 µM (inactive) | > 100 µM (inactive) | > 100 µM (inactive) | > 100 µM (inactive) | > 100 µM (inactive) | > 100 µM (inactive) | > 100 µM (inactive) | > 100 µM (inactive) | > 100 µM (inactive) | > 100 µM (inactive) | > 100 µM (inactive) | > 100 µM (inactive) | > 100 µM (inactive)
CC1(C)OC(=O)C(=C2CC(c3ccccc3)c3ccccc32)C(=O)O1 (centres undefined) | > 100 µM (inactive) | > 100 µM (inactive) | > 100 µM (inactive) | > 100 µM (inactive) | > 100 µM (inactive) | > 100 µM (inactive) | > 100 µM (inactive) |  | > 100 µM (inactive) | > 100 µM (inactive) | > 100 µM (inactive) | > 100 µM (inactive) | > 100 µM (inactive) | > 100 µM (inactive) | > 100 µM (inactive) | > 100 µM (inactive)
CCOc1ccc(/N=C\c2cc(OC)c(OC)c(OC)c2)cc1 | > 100 µM (inactive) | > 100 µM (inactive) | > 100 µM (inactive) | > 100 µM (inactive) | > 100 µM (inactive) | > 100 µM (inactive) |  | > 100 µM (inactive) | > 100 µM (inactive) | > 100 µM (inactive) | > 100 µM (inactive) | > 100 µM (inactive) | > 100 µM (inactive) | > 100 µM (inactive) | > 100 µM (inactive) | > 100 µM (inactive)
[O-][S+]1Nc2cccc(C(F)(F)F)c2S1 (centres undefined) | 7.66 µM (inactive) | > 100 µM (inactive) | 34.4 µM (inactive) | 67.1 µM (inactive) | 42 µM (inactive) | 41.8 µM (inactive) | 26.4 µM (inactive) | 27.7 µM (inactive) | 31.3 µM (inactive) | 38.5 µM (inactive) | 28.1 µM (inactive) | 19.1 µM (inactive) | 40.9 µM (inactive) | 69.8 µM (inactive) | 34 µM (inactive) | > 100 µM (inactive)
O=c1nc2sc3ccc4ccccc4c3n2nc1-c1ccccc1 | > 100 µM (inactive) | 35.6 µM (inactive) | 23.1 µM (inactive) | 29.4 µM (inactive) | 59.2 µM (inactive) | 27.2 µM (inactive) | > 100 µM (inactive) | 64.4 µM (inactive) | 19 µM (inactive) | 25.4 µM (inactive) |  | 22.3 µM (inactive) | 22.1 µM (inactive) | > 100 µM (inactive) | 28.6 µM (inactive) | 36.1 µM (inactive)
CCOC(=O)NC(=O)c1cn(CCN2CCN(C(=O)CCCCCCCCCCNc3ncnc4[nH]cnc34)CC2)c(=O)[nH]c1=O | 46.7 µM (inactive) | 11.5 µM (inactive) | > 100 µM (inactive) | > 100 µM (inactive) | 50.4 µM (inactive) | > 100 µM (inactive) | > 100 µM (inactive) | 25.8 µM (inactive) | > 100 µM (inactive) | > 100 µM (inactive) |  | > 100 µM (inactive) | > 100 µM (inactive) | > 100 µM (inactive) | > 100 µM (inactive) | > 100 µM (inactive)
COc1ccc(C2S/C(=C\c3cccc([N+](=O)[O-])c3)C(=O)N2NC(=O)Cc2ccccc2)cc1 (centres undefined) | > 100 µM (inactive) | > 100 µM (inactive) | > 100 µM (inactive) |  | > 100 µM (inactive) | > 100 µM (inactive) |  | > 100 µM (inactive) | > 100 µM (inactive) | > 100 µM (inactive) | > 100 µM (inactive) | > 100 µM (inactive) | > 100 µM (inactive) | > 100 µM (inactive) | > 100 µM (inactive) | > 100 µM (inactive)
COc1ccc(C(=O)C(C(=O)C(=O)Nc2nccs2)c2ccc(OC)cc2)cc1 (centres undefined) |  | > 100 µM (inactive) | > 100 µM (inactive) | > 100 µM (inactive) | > 100 µM (inactive) | > 100 µM (inactive) |  | > 100 µM (inactive) | > 100 µM (inactive) | > 100 µM (inactive) | 92 µM (inactive) | > 100 µM (inactive) | > 100 µM (inactive) | > 100 µM (inactive) | > 100 µM (inactive) | > 100 µM (inactive)
C[C@@H]1CC(=O)C2CCCC1C2=O (some centres undefined) | > 100 µM (inactive) | > 100 µM (inactive) | > 100 µM (inactive) | > 100 µM (inactive) | > 100 µM (inactive) |  | > 100 µM (inactive) | > 100 µM (inactive) | > 100 µM (inactive) | > 100 µM (inactive) | > 100 µM (inactive) | > 100 µM (inactive) | > 100 µM (inactive) | > 100 µM (inactive) | > 100 µM (inactive) | > 100 µM (inactive)
COc1cc2cc(OC)c3cc4c(cc3c2c(OC)c1OC)OCO4 | 15.3 µM (inactive) | > 39.6 µM (inactive) | 48.3 µM (inactive) | > 100 µM (inactive) | 23.4 µM (inactive) | 39.8 µM (inactive) | 11 µM (inactive) | 19.3 µM (inactive) | 20.8 µM (inactive) | > 66.8 µM (inactive) | 18 µM (inactive) | 29.4 µM (inactive) | 17.6 µM (inactive) | 25.2 µM (inactive) | 44.6 µM (inactive) | > 64.9 µM (inactive)
O=[N+]([O-])c1ccc(C2N3CCCCC3[C@@H]3c4[nH]c5ccccc5c4CCN23)cc1 (some centres undefined) | 80.2 µM (inactive) | 16.3 µM (inactive) | 10.7 µM (inactive) | 16.6 µM (inactive) | 15 µM (inactive) | 15.5 µM (inactive) |  | 5.22 µM (inactive) | 20.2 µM (inactive) | 24 µM (inactive) |  | 16.1 µM (inactive) | 19.2 µM (inactive) | 25.9 µM (inactive) | 19.5 µM (inactive) | 22.6 µM (inactive)
COC(=O)C1=C(C(=O)OC)C2C=CC1C1C(Cl)=C(Cl)C21 (centres undefined) | > 10 µM (inactive) | > 100 µM (inactive) | > 100 µM (inactive) |  | 88.7 µM (inactive) | > 100 µM (inactive) | > 100 µM (inactive) | > 100 µM (inactive) | > 100 µM (inactive) | > 100 µM (inactive) | > 100 µM (inactive) | > 100 µM (inactive) | > 100 µM (inactive) | > 100 µM (inactive) | > 100 µM (inactive) | > 100 µM (inactive)
CC(=O)Nc1ccc(-c2nnc(SCC(=O)Nc3ccccc3[N+](=O)[O-])o2)cc1 | 52 µM (inactive) | > 100 µM (inactive) | > 100 µM (inactive) |  | > 100 µM (inactive) | > 100 µM (inactive) |  | > 100 µM (inactive) | > 100 µM (inactive) | > 100 µM (inactive) | 45.9 µM (inactive) | 81.3 µM (inactive) | > 100 µM (inactive) | > 100 µM (inactive) | > 100 µM (inactive) | > 100 µM (inactive)
C1CCOC2(CCC3(CC2)OCCCCO3)OC1 | > 100 µM (inactive) | > 100 µM (inactive) | > 100 µM (inactive) | > 100 µM (inactive) | > 100 µM (inactive) |  | > 100 µM (inactive) | > 100 µM (inactive) | > 100 µM (inactive) | > 100 µM (inactive) | > 100 µM (inactive) | > 100 µM (inactive) | > 100 µM (inactive) |  | > 100 µM (inactive) | > 100 µM (inactive)
CCCC(O)[C@@H](O)c1ccc2c(c1O)C(=O)c1c(OC)cccc1C2=O (some centres undefined) | 18.4 µM (inactive) | 66.4 µM (inactive) | 51.4 µM (inactive) | 80.4 µM (inactive) | 16.8 µM (inactive) | 36.6 µM (inactive) | 19.4 µM (inactive) | 25.9 µM (inactive) | 27.2 µM (inactive) | 30.7 µM (inactive) | 16.1 µM (inactive) | 28.2 µM (inactive) | 29 µM (inactive) | 54.7 µM (inactive) | 44 µM (inactive) | 24.1 µM (inactive)
CCCCCCCCCCCCCCCCCC(=O)NCC(COP(=O)([O-])OCC[N+](C)(C)C)OC (centres undefined) | 1.16 µM (inactive) | 16.6 µM (inactive) | 1.56 µM (inactive) | 1.91 µM (inactive) | 15.2 µM (inactive) | 14.3 µM (inactive) | 1.05 µM (active) | 4.53 µM (inactive) | 1.87 µM (inactive) | 1.91 µM (inactive) |  | 16.9 µM (inactive) | 1.27 µM (inactive) | 4.09 µM (inactive) | 10.3 µM (inactive) | 15.2 µM (inactive)
COc1ccc(C2Cc3cc(OC)c(OC)c(OC)c3C2)cc1 (centres undefined) |  | 31.2 µM (inactive) | 30.3 µM (inactive) | 55.6 µM (inactive) | 16.3 µM (inactive) | 9.59 µM (inactive) | 49.9 µM (inactive) | 66.1 µM (inactive) | 73.5 µM (inactive) | > 100 µM (inactive) |  | 21.3 µM (inactive) | 46.6 µM (inactive) | 90.4 µM (inactive) | 22 µM (inactive) | > 100 µM (inactive)
